Test results published in ChEMBL document CHEMBL1201862, “PubChem BioAssay data set” (2004).
Activity calls are given as the source filed them. Rule as the data show it, for most assays here: actives have a measured EC50 and inactives only a lower limit.

What was measured:
[1] = target: T1, Rac GTPase-activating protein 1 (Homo sapiens, UniProt Q9H0H5); assay: MgcRacGAP GTPase-activating activity inhibitors, confirmation, biochemical, ADP Hunter fluorescence, primary and confirmatory (AID 624330); type: functional
T1 sequence (Q9H0H5 whole entry): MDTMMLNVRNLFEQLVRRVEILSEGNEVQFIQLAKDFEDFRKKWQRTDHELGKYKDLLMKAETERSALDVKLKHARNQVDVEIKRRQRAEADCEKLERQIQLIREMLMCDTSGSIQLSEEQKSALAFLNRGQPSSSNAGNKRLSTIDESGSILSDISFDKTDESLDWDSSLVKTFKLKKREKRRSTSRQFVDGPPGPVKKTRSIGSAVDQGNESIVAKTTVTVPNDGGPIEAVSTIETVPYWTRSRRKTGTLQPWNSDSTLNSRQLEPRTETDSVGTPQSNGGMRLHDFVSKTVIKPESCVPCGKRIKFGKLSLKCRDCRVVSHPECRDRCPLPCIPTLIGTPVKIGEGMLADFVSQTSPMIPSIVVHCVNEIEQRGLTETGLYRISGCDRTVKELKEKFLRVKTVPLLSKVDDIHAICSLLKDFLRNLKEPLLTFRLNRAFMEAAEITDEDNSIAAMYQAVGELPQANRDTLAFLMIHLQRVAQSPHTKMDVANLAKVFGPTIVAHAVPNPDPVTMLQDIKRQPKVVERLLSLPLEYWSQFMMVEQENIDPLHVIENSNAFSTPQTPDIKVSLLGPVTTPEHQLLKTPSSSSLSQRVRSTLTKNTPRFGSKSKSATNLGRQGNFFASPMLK

[2] = THP-1 cell cytotoxicity, dose response, cytotoxicity control for Vif-APOBEC3G degradation inhibitor project, THP-1 cells (AID 1117359); type: functional; details: Human immunodeficiency virus 1, THP-1
[3] = Luminescence Cell-Based Dose Response to Identify Activators of 5'UTR Stem-Loop Driven Prion Protein mRNA Translation in H4-C Neuroglioblastoma Cells. [Related pubchem assays: 1829 (Project Summary), 1814 (Primary HTS)]; type: functional
[4] = Luminescence Cell-Based Dose Confirmation HTS to Identify Activators of 5'UTR Stem-Loop Driven Alpha-Synuclein mRNA Translation in H4 Neuroglioblastoma Cells. [Related pubchem assays: 1829 (Project Summary), 1814 (Primary HTS)]; type: functional
[5] = Luminescence Cell-Based Dose Response HTS to Identify Activators of Luciferase Translation or Activity in H4 […] Cells. [Related pubchem assays: 1829 (Project Summary), 1814 (Primary HTS)]; type: functional
H4 = assay: Luminescence Cell-Based Dose Response HTS to Identify Activators of 5'UTR Stem-Loop Driven Prion Protein mRNA Translation in H4 Neuroglioblastoma Cells. [Related pubchem assays: 1829 (Project Summary), 1814 (Primary HTS)]; type: functional; details: Homo sapiens
[6] = Luminescence Cell-Based Dose Response to Identify Activators of Luciferase Translation or Activity in H4-C Neuroglioblastoma Cells. [Related pubchem assays: 1829 (Project Summary), 1814 (Primary HTS)]; type: functional
[7] = Luminescence Cell-Based Dose Confirmation to Identify Activators of 5'UTR Stem-Loop Driven Alpha-Synuclein mRNA Translation in H4 Neuroglioblastoma Cells. [Related pubchem assays: 1829 (Project Summary), 1814 (Primary HTS)]; type: functional
HeLa = assay: HeLa cell cytotoxicity, dose response, cytotoxicity control for MITF activator project, CellTiter-Glo luminescence, cherry-pick samples (AID 540259); type: functional, cell-based; details: Homo sapiens
[8] = target: T2, RNA-binding protein pos-1 (Caenorhabditis elegans, UniProt G5EF15); assay: inhibitors of POS-1/mex-3 RNA binding, dose response, biochemical, fluorescence polarization (AID 1964);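 also: purified POS-1 fused to maltose binding protein made in E. coli; potency of compounds blocking POS-1 binding to fluorescent RNA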
T2 sequence (G5EF15 whole entry): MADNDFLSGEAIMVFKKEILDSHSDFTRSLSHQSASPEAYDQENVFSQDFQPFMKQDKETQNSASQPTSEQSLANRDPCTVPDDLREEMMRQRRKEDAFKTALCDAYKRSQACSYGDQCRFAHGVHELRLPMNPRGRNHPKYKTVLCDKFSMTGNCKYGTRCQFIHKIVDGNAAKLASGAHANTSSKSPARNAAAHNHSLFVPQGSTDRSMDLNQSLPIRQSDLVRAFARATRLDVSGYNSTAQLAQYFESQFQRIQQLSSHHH

[9] = target: T3, Zinc finger protein mex-5 (Caenorhabditis elegans, UniProt Q9XUB2); assay: MEX-5/TCR-2 RNA interaction inhibitors, dose response, biochemical, C. elegans, fluorescence polarization (AID 1960)
T3 sequence (Q9XUB2 whole entry): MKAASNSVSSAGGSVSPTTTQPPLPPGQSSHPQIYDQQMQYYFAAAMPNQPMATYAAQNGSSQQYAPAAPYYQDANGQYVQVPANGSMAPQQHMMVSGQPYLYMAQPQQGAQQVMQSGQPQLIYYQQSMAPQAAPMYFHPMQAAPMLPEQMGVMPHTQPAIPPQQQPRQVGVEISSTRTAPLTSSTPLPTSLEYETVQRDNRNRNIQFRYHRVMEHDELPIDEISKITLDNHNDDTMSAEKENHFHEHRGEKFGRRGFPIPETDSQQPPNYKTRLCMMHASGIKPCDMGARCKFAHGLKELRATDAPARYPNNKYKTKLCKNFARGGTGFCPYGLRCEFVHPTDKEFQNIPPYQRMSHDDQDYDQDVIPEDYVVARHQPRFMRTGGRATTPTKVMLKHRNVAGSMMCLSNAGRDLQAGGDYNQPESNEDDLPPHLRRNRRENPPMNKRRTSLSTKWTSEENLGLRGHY

[10] = target: T4, Carboxy-terminal domain RNA polymerase II polypeptide A small phosphatase 1 (Homo sapiens, UniProt Q9GZU7); assay: inhibitors of CTDSP1, concentration-response testing, biochemical assay, absorbance-based, actives from ultra-high-throughput screening (AID 540297); type: functional
T4 sequence (Q9GZU7 whole entry): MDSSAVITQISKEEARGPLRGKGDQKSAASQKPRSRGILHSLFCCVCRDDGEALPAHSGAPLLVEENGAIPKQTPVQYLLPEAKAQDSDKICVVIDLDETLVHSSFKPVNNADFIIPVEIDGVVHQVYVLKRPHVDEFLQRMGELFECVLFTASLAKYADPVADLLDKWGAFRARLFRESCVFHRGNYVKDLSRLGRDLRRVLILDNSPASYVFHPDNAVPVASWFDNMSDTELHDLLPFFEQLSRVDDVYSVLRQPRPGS

Caspase-6 = target: T5, Caspase-6 (Homo sapiens, UniProt P55212); assay: human caspase-6 inhibitors, dose response, biochemical, VEID-R110 fluorescence, cherry-pick (AID 720632)
T5 sequence (P55212 whole entry): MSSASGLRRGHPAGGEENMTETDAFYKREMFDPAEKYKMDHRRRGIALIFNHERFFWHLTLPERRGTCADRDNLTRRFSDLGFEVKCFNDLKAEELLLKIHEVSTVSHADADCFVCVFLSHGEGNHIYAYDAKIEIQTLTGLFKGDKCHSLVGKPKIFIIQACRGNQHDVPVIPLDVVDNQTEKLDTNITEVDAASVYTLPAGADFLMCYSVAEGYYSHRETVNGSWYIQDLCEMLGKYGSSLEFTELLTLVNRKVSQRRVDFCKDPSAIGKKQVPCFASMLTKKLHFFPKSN

[11] = target: T6, Histone-lysine N-methyltransferase NSD2 (Homo sapiens, UniProt O96028); type: biochemical
T6 sequence (O96028 whole entry): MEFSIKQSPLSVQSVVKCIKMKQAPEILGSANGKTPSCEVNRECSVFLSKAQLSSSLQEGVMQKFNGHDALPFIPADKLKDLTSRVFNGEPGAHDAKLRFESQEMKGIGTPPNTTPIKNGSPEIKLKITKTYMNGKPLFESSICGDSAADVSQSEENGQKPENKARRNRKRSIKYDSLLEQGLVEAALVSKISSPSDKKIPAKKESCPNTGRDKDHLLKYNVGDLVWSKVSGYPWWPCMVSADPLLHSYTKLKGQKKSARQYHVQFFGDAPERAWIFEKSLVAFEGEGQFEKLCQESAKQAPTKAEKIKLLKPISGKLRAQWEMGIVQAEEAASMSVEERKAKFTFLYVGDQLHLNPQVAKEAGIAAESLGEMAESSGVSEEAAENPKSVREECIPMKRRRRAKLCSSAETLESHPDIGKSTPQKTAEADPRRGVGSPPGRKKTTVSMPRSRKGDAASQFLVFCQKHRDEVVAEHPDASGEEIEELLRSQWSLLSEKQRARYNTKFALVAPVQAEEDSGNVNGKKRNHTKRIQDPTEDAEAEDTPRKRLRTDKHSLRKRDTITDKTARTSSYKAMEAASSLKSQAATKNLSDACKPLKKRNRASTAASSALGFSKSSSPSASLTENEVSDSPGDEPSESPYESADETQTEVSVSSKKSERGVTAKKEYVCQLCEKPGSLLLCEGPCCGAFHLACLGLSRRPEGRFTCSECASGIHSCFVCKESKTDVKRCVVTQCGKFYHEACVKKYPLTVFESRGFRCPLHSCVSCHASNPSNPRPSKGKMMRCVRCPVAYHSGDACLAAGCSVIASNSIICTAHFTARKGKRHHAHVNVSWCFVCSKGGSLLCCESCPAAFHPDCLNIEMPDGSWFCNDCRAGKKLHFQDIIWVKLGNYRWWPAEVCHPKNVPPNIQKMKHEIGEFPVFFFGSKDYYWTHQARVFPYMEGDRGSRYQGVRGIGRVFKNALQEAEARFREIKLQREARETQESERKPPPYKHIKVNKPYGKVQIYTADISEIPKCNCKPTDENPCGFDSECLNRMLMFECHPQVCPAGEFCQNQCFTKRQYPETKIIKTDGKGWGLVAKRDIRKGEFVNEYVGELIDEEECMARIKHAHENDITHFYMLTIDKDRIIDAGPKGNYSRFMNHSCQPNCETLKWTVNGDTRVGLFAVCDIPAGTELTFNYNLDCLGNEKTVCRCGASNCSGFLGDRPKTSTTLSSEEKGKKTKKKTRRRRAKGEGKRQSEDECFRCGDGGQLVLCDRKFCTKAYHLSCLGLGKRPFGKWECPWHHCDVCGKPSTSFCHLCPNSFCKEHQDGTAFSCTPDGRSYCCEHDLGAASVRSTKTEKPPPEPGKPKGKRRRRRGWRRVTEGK

Question: With `COc1cc(Br)c(CNc2cc(C)ccc2C)cc1OC` as the molecule, how does the IC50 [1] read?
Answer: Its IC50 is 97400 nM (active).

Question: What about the CC50 [2] of the same molecule?
Answer: Its CC50 is 12600 nM (active).

Question: Which EC50 [3] does the source give for `CN(C)/C=C1\C(=O)N(c2ccc(Cl)cc2)CS1(=O)=O` here?
Answer: The EC50 was 1520 nM (active).

Question: And the EC50 [4]?
Answer: Its EC50 is < 100 nM (active).

Question: And the EC50 [5]?
Answer: Its EC50 is 63600 nM (active).

Question: What about the EC50 (H4) of the same molecule?
Answer: The EC50 was > 120000 nM (not active).

Question: And the EC50 [6]?
Answer: Its EC50 is 648 nM (active).

Question: What about the EC50 [7] of the same molecule?
Answer: Its EC50 is 697 nM (active).

Question: With `Cc1ccc(-n2c(C)csc2=N)cc1` as the molecule, how does the EC50 [3] read?
Answer: Its EC50 is 373 nM (active).

Question: And the EC50 [4]?
Answer: The EC50 was < 100 nM (active).

Question: And the EC50 [5]?
Answer: Its EC50 is 102 nM (active).

Question: And the EC50 (H4)?
Answer: Its EC50 is 547 nM (active).

Question: What about the EC50 [6] of the same molecule?
Answer: The EC50 was 8210 nM (active).

Question: What about the EC50 [7] of the same molecule?
Answer: The EC50 was 421 nM (active).

Question: With `Cc1cc2cc(OCc3ccccc3)ccc2n1C` as the molecule, how does the EC50 [3] read?
Answer: Its EC50 is 383 nM (active).

Question: What about the EC50 (H4) of the same molecule?
Answer: The EC50 was < 100 nM (active).

Question: And the EC50 [6]?
Answer: Its EC50 is 393 nM (active).

Question: And the EC50 [7]?
Answer: The EC50 was 217 nM (active).

Question: What about the AC50 (HeLa) of the same molecule?
Answer: Its AC50 is 97800 nM (active).

Question: With `Nc1c(C(=O)N2CCCCC2)sc2nc3c(cc12)CCCC3` as the molecule, how does the EC50 [3] read?
Answer: The EC50 was 682 nM (active).

Question: What about the EC50 [5] of the same molecule?
Answer: The EC50 was < 100 nM (active).

Question: And the EC50 [6]?
Answer: The EC50 was 923 nM (active).

Question: What about the EC50 [7] of the same molecule?
Answer: The EC50 was 322 nM (active).

Question: Which results are given for `Cc1cc(C=O)c(C)n1-c1cc(C(=O)O)cc(C(=O)O)c1`?
Answer: EC50 [8]: > 300000 nM (not active); EC50 [9]: > 300000 nM (not active); IC50 [10]: 3160 nM (active); AC50 (Caspase-6): 1710 nM (active); AC50 [11]: > 20000 nM (inactive)

Question: With `COc1ccc(OC)c(NC(=O)CSc2nc3ccccc3c(=O)n2CC2CCCO2)c1` (centres undefined) as the molecule, how does the CC50 [2] read?
Answer: Its CC50 is > 40000 nM (active).
